Results as given in patent US20170066717A1, “NEW PHENYLAZETIDINECARBOXYLATE OR -CARBOXAMIDE COMPOUNDS” (INVENTIVA, priority 2014, published 2017).
pEC50: −log10 of the molar value.

Columns and labels:
[1] = target: T1, NURR-1/RXRγ (Homo sapiens, UniProt P48443); assay: Transactivation test, NURR-1-Gal4/RXRγ, luciferase reporter in Cos-7 cells; format: cell-based; conditions: for Emax: COS-7, induction level relative to reference XCT0135908 at 2×10^−5 M (=100%), read-out: hNurr1_RXRgFL Emax (%); for pEC50: Cos-7 cells, NURR-1-Gal4/RXRγ, luciferase reporter, read-out: hNurr1_RXRgFL EC50
T1 construct: expressed in transfected cells; host or cells: Cos-7 cells

[2] = target: T2, NURR-1/RXRα (Homo sapiens, UniProt P19793); assay: Transactivation test, NURR-1-Gal4/RXRα, luciferase reporter in Cos-7 cells; format: cell-based; conditions: for Emax: COS-7, induction level relative to reference XCT0135908 at 2×10^−5 M (=100%), read-out: hNurr1_RXRaFL Emax (%); for pEC50: Cos-7 cells, NURR-1-Gal4/RXRα, luciferase reporter, read-out: hNurr1_RXRaFL EC50
T2 construct: expressed in transfected cells; host or cells: Cos-7 cells
T2 sequence (P19793 whole entry, the tested form may be a part): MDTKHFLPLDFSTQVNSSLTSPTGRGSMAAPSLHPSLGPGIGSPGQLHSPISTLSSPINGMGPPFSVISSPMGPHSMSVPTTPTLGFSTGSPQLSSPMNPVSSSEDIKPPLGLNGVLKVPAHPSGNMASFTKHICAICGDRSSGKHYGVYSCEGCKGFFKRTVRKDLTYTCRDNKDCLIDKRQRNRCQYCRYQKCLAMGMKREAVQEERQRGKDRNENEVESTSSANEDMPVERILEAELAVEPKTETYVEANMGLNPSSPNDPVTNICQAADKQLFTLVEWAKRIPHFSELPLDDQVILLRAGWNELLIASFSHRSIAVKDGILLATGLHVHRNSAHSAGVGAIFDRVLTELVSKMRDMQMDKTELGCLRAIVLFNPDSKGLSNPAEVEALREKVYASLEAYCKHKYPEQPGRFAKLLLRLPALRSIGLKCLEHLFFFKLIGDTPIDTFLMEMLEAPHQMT
T2 sequence (P43354 whole entry partner, the tested form may be a part): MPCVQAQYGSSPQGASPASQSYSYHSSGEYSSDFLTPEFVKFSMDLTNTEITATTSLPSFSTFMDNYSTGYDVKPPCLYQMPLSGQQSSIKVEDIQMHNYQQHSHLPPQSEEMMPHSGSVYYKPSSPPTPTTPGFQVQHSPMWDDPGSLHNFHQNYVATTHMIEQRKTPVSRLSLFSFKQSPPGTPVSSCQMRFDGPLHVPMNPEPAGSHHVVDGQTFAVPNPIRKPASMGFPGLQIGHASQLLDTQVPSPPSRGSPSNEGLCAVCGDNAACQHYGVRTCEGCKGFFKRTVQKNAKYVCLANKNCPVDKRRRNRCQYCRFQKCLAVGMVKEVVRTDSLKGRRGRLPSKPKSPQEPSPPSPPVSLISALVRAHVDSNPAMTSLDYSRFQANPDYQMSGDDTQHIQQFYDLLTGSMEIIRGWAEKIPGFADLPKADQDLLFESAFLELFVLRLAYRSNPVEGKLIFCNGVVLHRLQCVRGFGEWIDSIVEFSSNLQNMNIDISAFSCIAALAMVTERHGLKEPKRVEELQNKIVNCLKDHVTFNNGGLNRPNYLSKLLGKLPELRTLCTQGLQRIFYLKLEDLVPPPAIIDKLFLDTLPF
T2 sequence (P04386 1-147 partner limits assumed): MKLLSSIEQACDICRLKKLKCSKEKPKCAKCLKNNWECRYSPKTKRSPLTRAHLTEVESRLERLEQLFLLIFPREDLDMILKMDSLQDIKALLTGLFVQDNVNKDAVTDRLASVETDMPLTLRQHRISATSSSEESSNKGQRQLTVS

T1 sequence (P48443 whole entry, the tested form may be a part): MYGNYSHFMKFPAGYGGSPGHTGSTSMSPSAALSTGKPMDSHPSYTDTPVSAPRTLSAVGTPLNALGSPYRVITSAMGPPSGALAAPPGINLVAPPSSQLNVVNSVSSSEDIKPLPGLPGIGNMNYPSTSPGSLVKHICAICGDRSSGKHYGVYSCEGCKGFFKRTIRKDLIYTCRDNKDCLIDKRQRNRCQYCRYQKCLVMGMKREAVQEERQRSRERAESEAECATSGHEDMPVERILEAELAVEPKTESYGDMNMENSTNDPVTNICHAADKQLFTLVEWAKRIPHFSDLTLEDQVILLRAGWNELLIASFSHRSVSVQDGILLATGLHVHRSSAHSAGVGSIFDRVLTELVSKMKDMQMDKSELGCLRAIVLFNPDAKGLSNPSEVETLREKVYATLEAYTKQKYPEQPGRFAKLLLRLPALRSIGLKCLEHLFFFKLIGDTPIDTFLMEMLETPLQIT
T1 sequence (P43354 whole entry partner, the tested form may be a part): as the sequence (P43354 whole entry partner, the tested form may be a part) above
T1 sequence (P04386 1-147 partner limits assumed): as the sequence (P04386 1-147 partner limits assumed) above

melting point [°C] | Emax [1] [%] | pEC50 [1] | Emax [2] [%] | pEC50 [2] | Compound
88 to 89 | 59 | 7.42 | 71 | 7.85 | CC(C)C1CNc2c(cc(C(F)(F)F)cc2-c2cccc(N3CC(C(=O)O)C3)c2)O1 (centres unmarked) [Example 198, 1-[3-[2-isopropyl-7-(trifluoromethyl)-3,4-dihydro-2H-1,4-benzoxazin-5yl]phenyl]azetidine-3-carboxylic acid]
69 to 76 | 106 | 6.81 | 103 | 7.15 | CC1(C)CN(c2cccc(N3CC(C(=O)O)C3)c2)c2ccc(OC(F)(F)F)cc2O1 [Example 226, 1-[3-[2,2-dimethyl-7-(trifluoromethyoxy)-3H-1,4-benzoxazin-4-yl]phenyl]azetidine-3-carboxylic acid]
64 to 71 | 81 | 7.32 | 80 | 7.60 | CC(C)C1CN(c2cccc(N3CC(C(=O)O)C3)c2)c2ccc(C(F)(F)F)cc2O1 (centres unmarked) [Example 223, 1-[3-[2-isopropyl-7-(trifluoromethyl)-2,3-dihydro-1,4-benzoxazin-4-yl]phenyl]azetidine-3-carboxylic acid]
99 to 109 | 79 | 8.40 | 89 | 8.40 | Cc1cn(-c2cccc(N3CC(C(=O)NS(C)(=O)=O)C3)c2)c2ccc(C(F)(F)F)cc12 [Example 150, N-methylsulfonyl-1-[3-[3-methyl-5-(trifluoromethyl)indol-1-yl]phenyl]azetidine-3-carboxamide]
160 to 163 | 90 | 8.15 | 95 | 8.30 | Cc1cn(-c2cccc(N3CC(C(N)=O)C3)c2)c2ccc(C(F)(F)F)cc12 [Example 185, 1-[3-[3-methyl-5-(trifluoromethyl)indol-1-yl]phenyl]azetidine-3-carboxamide]
88 to 95 | 108 | 6.18 | 89 | 6.64 | CC(C)N(C)Cc1cn(-c2cccc(N3CC(C(=O)O)C3)c2)c2ccc(C(F)(F)F)cc12 [Example 134, 1-[3-[3-[[iisopropyl(methyl)amino]methyl]-5-(trifluoromethyl)indol-1-yl]phenyl]azetidine-3-carboxylic acid]
80 to 86 | 112 | 7.47 | 108 | 7.70 | CC1(C)Oc2cc(C(F)(F)F)ccc2N(c2cccc(N3CC(C(=O)O)C3)c2)C1=O [Example 120, 1-[3-[2,2-dimethyl-3-oxo-7-(trifluoremethyl)-1,4-benzoxazin-4-yl]phenyl]azetidine-3-carboxylic acid]
61 | 101 | 6.68 | 107 | 6.93 | CC1COc2cc(C(F)(F)F)ccc2N1c1cccc(N2CC(C(=O)O)C2)c1 (single isomer, unassigned; isomer 1) [Example 124-1, 1-[3-[3-methyl-7-(trifluoromethyl)-2,3-dihydro-1,4-benzoxazin-4-yl]phenyl]azetidine-3-carboxylic acid, isomer 1]
74 to 83 | 77 | 6.59 | 82 | 7.24 | Cc1ccc(N2CC(C(=O)O)C2)cc1N1CC(C)(C)Oc2cc(C(F)(F)F)ccc21 [Example 237, 1-[3-[2,2-dimethyl-7-(trifluoromethyl)-3H-1,4-benzoxazin-4-yl]-4-methylphenyl]azetidine-3-carboxylic acid]

Compound | melting point [°C] | Emax [1] [%] | pEC50 [1] | Emax [2] [%] | pEC50 [2]
CCc1cc2c(cc1-c1cccc(N3CC(C(=O)O)C3)c1)C(C)(C)CCC2(C)C [Example 86, 1-[3-(7-ethyl-1,1,4,4,-tetramethyltetralin-6-yl)phenyl]azetidine-3-carboxylic acid] | 78 to 88 | 97 | 7.80 | 107 | 8.22
